Key:
Assay in all cases: relative viability (nuclei count vs DMSO), 5 days (fraction); higher = more cells survive
Venetoclax + Palbociclib = compound: CC1(C)CCC(CN2CCN(c3ccc(C(=O)NS(=O)(=O)c4ccc(NCC5CCOCC5)c([N+](=O)[O-])c4)c(Oc4cnc5[nH]ccc5c4)c3)CC2)=C(c2ccc(Cl)cc2)C1 [Venetoclax] + CC(=O)c1c(C)c2cnc(Nc3ccc(N4CCNCC4)cn3)nc2n(C2CCCC2)c1=O [Palbociclib] (partner 0.5 µM)
In short: (§1)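 Lung cancer cell lines, seeded in 1536-well plates, were treated the following day by pin tool with a single drug or with five library-drug doses (not always all listed) in √10 steps on top of a fixed anchor-drug dose. Cells were fixed and nuclei stained in one step after 5 days, and nuclei were counted. Relative viability is the nuclei count for treated wells divided by that for vehicle wells, reported as medians of duplicate plates.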

Venetoclax + Navitoclax = compound: CC1(C)CCC(CN2CCN(c3ccc(C(=O)NS(=O)(=O)c4ccc(NCC5CCOCC5)c([N+](=O)[O-])c4)c(Oc4cnc5[nH]ccc5c4)c3)CC2)=C(c2ccc(Cl)cc2)C1 [Venetoclax] + CC1(C)CCC(c2ccc(Cl)cc2)=C(CN2CCN(c3ccc(C(=O)NS(=O)(=O)c4ccc(N[C@H](CCN5CCOCC5)CSc5ccccc5)c(S(=O)(=O)C(F)(F)F)c4)cc3)CC2)C1 [Navitoclax] (partner 0.5 µM)
In short: as §1

Selumetinib + Crizotinib = compound: Cn1cnc2c(F)c(Nc3ccc(Br)cc3Cl)c(C(=O)NOCCO)cc21 [Selumetinib] + C[C@@H](Oc1cc(-c2cnn(C3CCNCC3)c2)cnc1N)c1c(Cl)ccc(F)c1Cl [Crizotinib] (partner 1 µM)
In short: as §1

Selumetinib + Linsitinib = compound: Cn1cnc2c(F)c(Nc3ccc(Br)cc3Cl)c(C(=O)NOCCO)cc21 [Selumetinib] + C[C@]1(O)C[C@@H](c2nc(-c3ccc4ccc(-c5ccccc5)nc4c3)c3c(N)nccn32)C1 [Linsitinib] (partner 1 µM)
In short: as §1

Cell Line | relative viability (Venetoclax + Palbociclib; first compound 0.01 µM) | relative viability (Venetoclax + Palbociclib; first compound 0.03162 µM) | relative viability (Venetoclax + Palbociclib; first compound 0.1 µM) | relative viability (Venetoclax + Palbociclib; first compound 0.3162 µM) | relative viability (Venetoclax + Palbociclib; first compound 1 µM) | relative viability (Venetoclax + Navitoclax; first compound 0.01 µM) | relative viability (Venetoclax + Navitoclax; first compound 0.03162 µM) | relative viability (Venetoclax + Navitoclax; first compound 0.1 µM) | relative viability (Venetoclax + Navitoclax; first compound 0.3162 µM) | relative viability (Venetoclax + Navitoclax; first compound 1 µM) | relative viability (Selumetinib + Crizotinib; first compound 0.02 µM) | relative viability (Selumetinib + Crizotinib; first compound 0.06325 µM) | relative viability (Selumetinib + Crizotinib; first compound 0.2 µM) | relative viability (Selumetinib + Crizotinib; first compound 0.6325 µM) | relative viability (Selumetinib + Linsitinib; first compound 0.02 µM) | relative viability (Selumetinib + Linsitinib; first compound 0.06325 µM) | relative viability (Selumetinib + Linsitinib; first compound 0.2 µM) | relative viability (Selumetinib + Linsitinib; first compound 0.6325 µM)
HCC-827 | 0.526 | 0.627 | 0.463 | 0.442 | 0.534 | 1.02 | 0.996 | 1.04 | 1.04 | 1.01 | 0.945 | 0.913 | 0.869 | 0.83 | 0.848 | 0.929 | 0.931 | 0.894
HOP-62 | 0.43 | 0.462 | 0.373 | 0.427 | 0.4 | 0.988 | 1.17 | 1.09 | 1.13 | 1 | 0.841 | 0.877 | 0.909 | 0.515 | 0.98 | 1.05 | 0.93 | 0.469
LC-2-ad | 0.456 | 0.532 | 0.465 | 0.491 | 0.508 | 0.441 | 0.4 | 0.531 | 0.52 | 0.466 | 0.397 | 0.446 | 0.431 | 0.405 | 0.824 | 0.801 | 0.653 | 0.9
LCLC-97TM1 | 0.231 | 0.217 | 0.202 | 0.208 | 0.212 |  | 0.608 | 0.44 | 0.361 | 0.446 | 0.527 | 0.496 | 0.467 | 0.504 | 0.227 | 0.193 | 0.207 | 0.2
LK-2 | 0.681 | 0.682 | 0.815 | 0.65 | 0.688 | 0.809 | 0.945 | 0.763 | 0.816 | 0.845 | 0.239 | 0.234 | 0.229 | 0.262 | 0.466 | 0.551 | 0.587 | 0.312
LOU-NH91 | 0.504 | 0.546 | 0.505 | 0.516 | 0.519 | 0.594 | 0.832 | 0.676 | 0.77 | 0.659 | 0.709 | 0.715 | 0.683 | 0.677 | 0.773 | 0.846 | 0.783 | 0.727
LU99A | 0.377 | 0.465 | 0.384 | 0.39 | 0.427 | 0.783 | 0.936 | 0.708 | 0.833 | 0.741 | 0.615 | 0.556 | 0.558 | 0.544 | 0.49 | 0.567 | 0.511 | 0.566
LXF-289 | 0.624 | 0.592 | 0.631 | 0.556 | 0.552 | 0.926 | 0.988 | 0.952 | 0.868 | 0.829 | 0.872 | 0.7 | 0.664 | 0.616 | 1 | 0.853 | 0.745 | 0.719
NCI-H23 | 0.514 | 0.598 | 0.495 | 0.491 | 0.413 | 0.869 | 0.774 | 0.774 | 0.82 | 0.704 | 0.583 | 0.47 | 0.328 | 0.406 | 0.585 | 0.53 | 0.43 | 0.369
NCI-H322M | 0.489 | 0.487 | 0.389 | 0.412 | 0.485 | 1.25 | 1.11 | 1.11 | 1.35 | 1.16 | 0.708 | 0.807 | 0.796 | 0.828 | 0.717 | 0.608 | 0.67 | 0.626
NCI-H441 | 0.218 | 0.27 | 0.241 | 0.2 | 0.18 | 0.659 | 1.09 | 0.627 | 0.482 | 0.47 | 0.724 | 0.858 | 0.78 | 0.556 | 0.543 | 0.46 | 0.491 | 0.435
NCI-H460 | 0.158 | 0.294 | 0.121 | 0.216 | 0.144 | 0.996 | 1.16 | 1.1 | 1.07 | 1.09 | 0.852 | 0.714 | 0.672 | 0.544 | 0.666 | 0.429 | 0.262 | 0.214
NCI-H520 | 0.236 | 0.217 |  | 0.204 | 0.201 | 1.14 | 1.27 | 1.06 | 1.2 | 0.962 | 0.791 | 0.766 | 0.764 | 0.809 | 1.08 | 0.944 | 1.09 | 1.07
NCI-H647 | 0.504 | 0.488 | 0.34 | 0.365 | 0.269 | 1.16 | 1.26 | 1.22 | 1.16 | 0.901 | 1.14 | 0.942 | 0.926 | 0.99 | 1.28 | 1.06 | 0.827 | 0.803
NCI-H727 | 0.655 | 0.586 | 0.658 | 0.82 | 0.651 | 0.375 | 0.462 | 0.36 | 0.323 | 0.516 | 0.558 | 0.348 | 0.316 | 0.255 | 0.17 | 0.207 | 0.168 | 0.166
NCI-H838 | 0.236 | 0.212 | 0.217 | 0.208 | 0.2 | 1.21 | 1.14 | 1.1 | 1.11 | 1.11 | 0.783 | 0.689 | 0.634 | 0.601 | 0.883 | 0.848 | 0.807 | 0.735
NCI-H1355 | 0.428 | 0.387 | 0.404 | 0.424 | 0.356 | 0.892 | 0.972 | 0.804 | 0.915 | 0.897 | 1.06 | 1.1 | 0.796 | 0.681 | 0.72 | 0.744 | 0.734 | 0.555
